# Results taken from patent publication US10028961B2, “Therapeutically active compounds and their methods of use” (AGIOS PHARMACEUTICALS, INC., priority 2013, dated 2018).
# Molecular target: IDH1 wt/IDH1 R132H heterodimer (Homo sapiens (Human), UniProt O75874, R132H)
# Assay: In vitro assay for IDH1m R132H inhibitors, IDH1 wt/IDH1 R132H heterodimer, NADPH depletion (diaphorase/resazurin)
# Assay type: biochemical
# Conditions: IDH1 wt/IDH1 R132H heterodimer, 300 μM NADP (saturated); read-out: IDH1 wt/R132H NADPH/NADP IC50 saturated
# Experimental: The following describes the experimental procedures that can be used to obtain data on columns 2 and 4 of Table 4 and column 2 of Table 5.
# In the primary reaction, the reduction of α-KG acid to 2-HG is accompanied by a concomitant oxidation of NADPH to NADP. The amount of NADPH remaining at the end of the reaction time is measured in a secondary diaphorase/resazurin reaction in which the NADPH is consumed in a 1:1 molar ratio with the conversion of resazurin to the highly fluorescent resorufin.
# The mixture of compound, enzyme, and cofactor is pre-incubated at room temperature for 1 hr prior to the addition of alpha-ketoglutarate. To perform the secondary reaction, 10 uL of 1× buffer containing 36 μg/ml diaphorase and […] resazurin is added to the primary reaction and incubated for a further 5 minutes at 25° C. […] Compounds or compound dilutions are prepared in 100% DMSO concentration and diluted 1:50 into the final reaction. […] IC50s are determined.
# IDH1 or IDH2 wildtype (wt) and mutant heterodimers are expressed and purified by methods known in the art. […] Co-expression of IDH1wt-his and IDH1R132C-flag is carried out in sf9 insect cells. Cells (25 g) are resuspended in 250 ml of 50 mM Tirs, 500 mM NaCl, pH7.4, at 4° C. with stirring. Cells are disrupted with 4 passes through an M-Y110 Micro fluidizer (Microfluidics) set to 500 psi, and then centrifuged at 22,000 rcf for 20 min at 4° C. The supernatant is harvested and loaded at 15 cm/h on a Histrap FF 5*1 ml column (GE) which is equilibrated with 50 mM Tirs, 500 mM NaCl, pH7.4. Host cell contaminants are removed by washing the column with equilibration buffer followed by equilibration buffer containing 20 mM imidazole and 60 mM imidazole to baseline. IDH1wt-his homodimer and IDH1wt-his/IDH1R132C-flag are eluted by equilibration buffer containing 250 mM imidazole. Fractions eluted by 250 mM imidazole are pooled together and loaded at 15 cm/h onto a column pre-packed with 10 ml ANTI-FLAG® M2 Affinity Gel (Sigma), the column is equilibrated with 50 mM Tris, 500 mM NaCl, pH7.4. After washing with equilibration buffer, IDH1wt-his/IDH1R132C-flag heterodimer is eluted by equilibration buffer containing flag peptide (0.2 mg/ml). Aliquots of IDH1wt-his/IDH1R132C-flag are flash frozen in liquid N2 and stored at −80° C. Same conditions are used for the purification of IDH1wt-his/IDH1R132H-flag.
# Sequence of IDH1 wt/IDH1 R132H heterodimer (O75874 whole entry R132H): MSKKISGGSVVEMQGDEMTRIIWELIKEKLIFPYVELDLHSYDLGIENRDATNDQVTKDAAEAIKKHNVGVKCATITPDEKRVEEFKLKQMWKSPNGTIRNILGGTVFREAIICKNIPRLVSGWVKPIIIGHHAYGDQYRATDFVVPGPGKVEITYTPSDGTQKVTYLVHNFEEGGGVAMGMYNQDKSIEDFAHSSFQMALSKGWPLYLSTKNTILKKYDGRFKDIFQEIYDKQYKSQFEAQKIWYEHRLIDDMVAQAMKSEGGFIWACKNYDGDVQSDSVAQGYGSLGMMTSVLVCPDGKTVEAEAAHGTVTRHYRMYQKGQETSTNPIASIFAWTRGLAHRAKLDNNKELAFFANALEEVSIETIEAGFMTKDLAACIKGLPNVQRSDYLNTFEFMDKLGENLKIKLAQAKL
# Sequence of IDH1 wt/IDH1 R132H heterodimer (O75874 whole entry, stated change not applied): as the sequence (O75874 whole entry R132H) above, with H132R counted along it
row,IC50,Compound
1,50 to 100 nM,N#CC1(c2cc(Nc3nc(NCC4CC4(F)F)nc(-c4cccc(C(F)(F)F)n4)n3)ccn2)CC1 (stereo not drawn) [Compound 362]

# Same assay, conditions: IDH1 wt/R132H heterodimer, NADPH/NADP, not saturated
row,IDH1 wt/R132H NADPH/NADP IC50 not saturated,Compound
1,No Fit,C[C@@H](Nc1nc(N[C@H](C)C2CC2)nc(-c2ccc(Cl)cc2)n1)C1CC1 [Compound 65]

# Same assay, conditions: IDH1 wt/R132H heterodimer, NADPH/NADP, not saturated; read-out: IDH1 wt/R132H NADPH/NADP IC50 not saturated
row,IC50,Compound
1,< 50 nM,COC(=O)N1CCC(Nc2nc(NC3CCC(F)(F)C3)nc(-c3cccc(C(F)(F)F)n3)n2)C1 (stereo not drawn) [Compound 59]
2,< 50 nM,C[C@@H](Nc1nc(NC2Cc3ccccc3C2)nc(-c2cccc(C(F)(F)F)n2)n1)C1CC1 [Compound 60]
3,50 to 100 nM,CC(C)Nc1nc(NC2CCCCC2)nc(-c2ccncc2)n1 [Compound 62]
4,50 to 100 nM,COCC(COC)Nc1nc(N[C@H](C)C2CC2)nc(-c2cccc(C(F)(F)F)n2)n1 [Compound 63]
5,50 to 100 nM,C[C@@H](Nc1nc(N[C@H](C)C2CC2)nc(-c2cccc(Cl)c2)n1)C1CC1 [Compound 64]
6,> 1000 nM,C[C@@H](Nc1nc(N[C@H](C)C2CC2)nc(-c2ccccn2)n1)C1CC1 [Compound 93]
7,> 1000 nM,C[C@@H](Nc1nc(N[C@H](C)C2CC2)nc(-c2ccccc2Cl)n1)C1CC1 [Compound 94]
8,> 1000 nM,C[C@@H](Nc1nc(N[C@H](C)C2CC2)nc(-c2ccncc2)n1)C1CC1 [Compound 95]
9,> 1000 nM,CN1CCC(Nc2nc(NC3CCC(F)(F)C3)nc(-c3cccc(C(F)(F)F)n3)n2)C1 (stereo not drawn) [Compound 96]
10,< 50 nM,COCCC(C)Nc1nc(N[C@H](C)C2CC2)nc(-c2cccc(C(F)(F)F)n2)n1 (stereo partly drawn) [Compound 233]
11,< 50 nM,C=Cc1cccc(-c2nc(N[C@H](C)C3CC3)nc(N[C@H](C)C3CC3)n2)n1 [Compound 240]
12,100 to 1000 nM,CC(C)(O)CNc1nc(Nc2ccnc(C3(C#N)CC3)c2)nc(-c2cccc(C(F)(F)F)n2)n1 [Compound 259]
13,100 to 1000 nM,C[C@@H](Nc1nc(N[C@H](C)C2CC2)nc(-c2cccc(C#N)n2)n1)C1CC1 [Compound 269]
14,100 to 1000 nM,C[C@H](CO)Nc1nc(N[C@H](C)C2CC2)nc(-c2cccc(C(F)(F)F)n2)n1 [Compound 281]
15,100 to 1000 nM,Cc1cccc(-c2nc(NC3CCC(F)(F)CC3)nc(NC3CCC(F)(F)CC3)n2)n1 [Compound 282]
16,100 to 1000 nM,C#CCNc1nc(N[C@H](C)C2CC2)nc(-c2cccc(C(F)(F)F)n2)n1 [Compound 284]
17,100 to 1000 nM,COC(=O)CCNc1nc(N[C@H](C)C2CC2)nc(-c2cccc(C(F)(F)F)n2)n1 [Compound 286]
18,100 to 1000 nM,OC1CCCC1Nc1nc(NC2CCCC2O)nc(-c2cccc(Cl)n2)n1 (stereo not drawn) [Compound 290]
19,100 to 1000 nM,FC1(F)CCC(Nc2nc(Nc3cc4ccccc4[nH]3)nc(-c3cccc(C(F)(F)F)n3)n2)C1 (stereo not drawn) [Compound 291]
20,100 to 1000 nM,COc1cccc(-c2nc(N[C@H](C)C3CC3)nc(N[C@H](C)C3CC3)n2)n1 [Compound 294]

row,IC50,Compound
1,100 to 1000 nM,COCCOCC(C)Nc1nc(N[C@H](C)C2CC2)nc(-c2cccc(C(F)(F)F)n2)n1 (stereo partly drawn) [Compound 295]
2,100 to 1000 nM,Fc1ccc([C@H]2C[C@H](Nc3nc(N[C@H]4C[C@H](c5ccc(F)cc5)C4)nc(-c4cccc(C(F)(F)F)n4)n3)C2)cc1 [Compound 299]
3,100 to 1000 nM,C[C@@H](Nc1nc(N[C@H](C)C2CC2)nc(-c2cncc(C(F)(F)F)c2)n1)C1CC1 [Compound 300]
4,> 1000 nM,C[C@@H](Nc1nc(NCC(C)(C)C(N)=O)nc(-c2cccc(C(F)(F)F)n2)n1)C1CC1 [Compound 303]
5,> 1000 nM,Cn1ccc(-c2nc(NC3CCC(F)(F)CC3)nc(NC3CCC(F)(F)CC3)n2)n1 [Compound 304]
6,> 1000 nM,CC(CN1CCOCC1)Nc1nc(N[C@H](C)C2CC2)nc(-c2cccc(C(F)(F)F)n2)n1 (stereo partly drawn) [Compound 306]
7,> 1000 nM,C[C@@H](Nc1nc(N[C@H](C)C2CC2)nc(-c2cccc(C(N)=O)n2)n1)C1CC1 [Compound 307]
8,> 1000 nM,COC(=O)c1cccc(-c2nc(N[C@H](C)C3CC3)nc(N[C@H](C)C3CC3)n2)n1 [Compound 310]
9,> 1000 nM,Cc1cnn(-c2nc(N[C@H](C)C3CC3)nc(N[C@H](C)C3CC3)n2)c1 [Compound 312]
10,> 1000 nM,Fc1ccc(N2CC(Nc3nc(NC4CCC(F)(F)C4)nc(-c4cccc(C(F)(F)F)n4)n3)C2)cc1 (stereo not drawn) [Compound 313]
11,> 1000 nM,FC1(F)CCC(Nc2nc(NC3CCC(F)(F)CC3)nc(-c3cc(Cl)ccn3)n2)CC1 [Compound 314]
12,> 1000 nM,Cn1c(Nc2nc(NC3CCC(F)(F)C3)nc(-c3cccc(C(F)(F)F)n3)n2)cc2ccccc21 (stereo not drawn) [Compound 316]
13,> 1000 nM,C[C@@H](Nc1nc(N[C@H](C)C2CC2)nc(-c2cccc(C#N)c2)n1)C1CC1 [Compound 320]
14,> 1000 nM,C[C@@H](Nc1nc(N[C@H](C)C2CC2)nc(-c2cccc(OC(F)(F)F)c2)n1)C1CC1 [Compound 322]
15,> 1000 nM,C[C@@H](Nc1nc(N[C@H](C)C2CC2)nc(-c2ccnc(C(F)(F)F)c2)n1)C1CC1 [Compound 323]
16,> 1000 nM,Cc1nc(-c2nc(NC3CCC(F)(F)CC3)nc(NC3CCC(F)(F)CC3)n2)co1 [Compound 324]
17,> 1000 nM,C[C@@H](Nc1nc(N[C@H](C)C2CC2)nc(-c2cccc(O)n2)n1)C1CC1 [Compound 327]
18,> 1000 nM,Cc1cc(-c2nc(NC3CCC(F)(F)CC3)nc(NC3CCC(F)(F)CC3)n2)no1 [Compound 329]
19,> 1000 nM,FC1(F)CCC(Nc2nc(NC3CCC(F)(F)CC3)nc(-c3ccn[nH]3)n2)CC1 [Compound 330]
20,> 1000 nM,CC(CN1CCCCC1)Nc1nc(N[C@H](C)C2CC2)nc(-c2cccc(C(F)(F)F)n2)n1 (stereo partly drawn) [Compound 331]

# Molecular target: IDH2 R140Q (Homo sapiens (Human), UniProt P48735, R140Q)
# Sequence (P48735 40-452 R140Q): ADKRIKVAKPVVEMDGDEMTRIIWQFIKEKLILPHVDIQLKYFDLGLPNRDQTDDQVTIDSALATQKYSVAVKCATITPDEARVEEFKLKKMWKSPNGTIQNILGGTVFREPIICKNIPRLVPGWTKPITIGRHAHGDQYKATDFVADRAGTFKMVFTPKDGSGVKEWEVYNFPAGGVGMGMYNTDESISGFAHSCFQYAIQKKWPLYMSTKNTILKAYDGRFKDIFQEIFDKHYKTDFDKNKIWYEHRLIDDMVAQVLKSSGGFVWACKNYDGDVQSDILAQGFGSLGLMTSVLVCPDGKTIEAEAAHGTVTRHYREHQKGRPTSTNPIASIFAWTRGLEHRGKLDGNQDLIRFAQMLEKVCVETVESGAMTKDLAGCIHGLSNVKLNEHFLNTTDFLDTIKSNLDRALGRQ
# Assay: In vitro assay for IDH2m R140Q inhibitors, cofactor depletion assay
# Assay type: biochemical
# Conditions: IDH2 R140Q enzyme
# Description: The following describes the experimental procedures used to obtain data on column 7 of Table 4.
# The reaction is terminated by the addition of a second enzyme, diaphorase, and a corresponding substrate, resazurin. Diaphorase reduces resazurin to the highly fluorescent resorufin with the concomitant oxidation of NADPH to NADP, both halting the IDH2 reaction by depleting the available cofactor pool and facilitating quantitation of the amount of cofactor remaining after a specific time period through quantitative production of an easily detected fluorophore.
# The test compound is then incubated for one hour at room temperature with the enzyme; before starting the IDH2 reaction with the addition of 10 μl of substrate mix containing 4 μM NADPH and 1.6 mM α-KG in the buffer described above. After a further 16 hours of incubation at room temperature, the reaction is halted and the remaining NADPH measured through conversion of resazurin to resorufin by the addition of 25 μl Stop Mix (36 μg/ml diaphorase enzyme and 60 μM resazurin; in buffer).
row,IC50,Compound
1,> 1000 nM,"Clc1cccc(-c2nc(NC3[C@H]4COC[C@@H]34)nc(NC3[C@H]4COC[C@@H]34)n2)n1 (stereo partly drawn) [Compound 72, N^2,N^4-di((1R,5S)-3-oxabicyclo[3.1.0]hexan-6-yl)-6-(6-chloropyridin-2-yl)-1,3,5-triazine-2,4-diamine]"
2,< 50 nM,"CC(C)(C)CNc1nc(NCC(C)(C)C)nc(-c2cccc(N)n2)n1 [Compound 73, 6-(6-aminopyridin-2-yl)-N^2,N^4-dineopentyl-1,3,5-triazine-2,4-diamine]"
3,< 50 nM,"CC(C)CNc1nc(NCC(C)C)nc(-c2cccc(N)n2)n1 [Compound 74, 6-(6-aminopyridin-2-yl)-N^2,N^4-diisobutyl-1,3,5-triazine-2,4-diamine]"
4,50 to 100 nM,CC(C)CNc1nc(NC2CCOCC2)nc(-c2cccc(C(F)(F)F)n2)n1 [Compound 75]
5,< 50 nM,FC1(F)CC2(CC(Nc3nc(Nc4ccnc(C(F)(F)F)c4)nc(-c4cccc(C(F)(F)F)n4)n3)C2)C1 [Compound 257]
6,< 50 nM,CC(C)(O)CNc1nc(Nc2ccnc(C3(C#N)CC3)c2)nc(-c2cccc(C(F)(F)F)n2)n1 [Compound 259]
7,> 1000 nM,CN1CCC(Nc2nc(NC3CCC(F)(F)C3)nc(-c3cccc(C(F)(F)F)n3)n2)C1 (stereo not drawn) [Compound 326]
8,< 50 nM,N#CC1(c2cc(Nc3nc(NCC4CC4(F)F)nc(-c4cccc(C(F)(F)F)n4)n3)ccn2)CC1 (stereo not drawn) [Compound 362]

# System: U87MG pLVX-IDH2 R140Q-neo cells
# Assay: U87MG pLVX-IDH2 R140Q-neo cell based assay, 2-HG by LC-MS
# Conditions: Homo sapiens, U-87 MG
row,IC50,Compound
1,100 to 1000 nM,"CC(C)Nc1nc(NC2CCCOC2)nc(-c2ccccc2)n1 (stereo not drawn) [Compound 69, N^2-isopropyl-6-phenyl-N^4-(tetrahydro-2H-pyran-3-yl)-1,3,5-triazine-2,4-diamine]"
2,50 to 100 nM,C=CCCNc1nc(NCCC=C)nc(-c2ccccc2)n1 [Compound 70]
3,50 to 100 nM,c1ccc(-c2nc(NC3C4COCC43)nc(NC3C4COCC43)n2)cc1 (stereo not drawn) [Compound 71]
4,50 to 100 nM,"Clc1cccc(-c2nc(NC3[C@H]4COC[C@@H]34)nc(NC3[C@H]4COC[C@@H]34)n2)n1 (stereo partly drawn) [Compound 72, N^2,N^4-di((1R,5S)-3-oxabicyclo[3.1.0]hexan-6-yl)-6-(6-chloropyridin-2-yl)-1,3,5-triazine-2,4-diamine]"
5,50 to 100 nM,"CC(C)(C)CNc1nc(NCC(C)(C)C)nc(-c2cccc(N)n2)n1 [Compound 73, 6-(6-aminopyridin-2-yl)-N^2,N^4-dineopentyl-1,3,5-triazine-2,4-diamine]"
6,50 to 100 nM,"CC(C)CNc1nc(NCC(C)C)nc(-c2cccc(N)n2)n1 [Compound 74, 6-(6-aminopyridin-2-yl)-N^2,N^4-diisobutyl-1,3,5-triazine-2,4-diamine]"
7,< 50 nM,CC(C)CNc1nc(NC2CCOCC2)nc(-c2cccc(C(F)(F)F)n2)n1 [Compound 75]
8,< 50 nM,FC1(F)CC2(CC(Nc3nc(Nc4ccnc(C(F)(F)F)c4)nc(-c4cccc(C(F)(F)F)n4)n3)C2)C1 [Compound 257]
9,< 50 nM,CC(C)(O)CNc1nc(Nc2ccnc(C3(C#N)CC3)c2)nc(-c2cccc(C(F)(F)F)n2)n1 [Compound 259]
10,> 1000 nM,CN1CCC(Nc2nc(NC3CCC(F)(F)C3)nc(-c3cccc(C(F)(F)F)n3)n2)C1 (stereo not drawn) [Compound 326]
